Test results from the SangsterLogP compilation.

Assay: method code SF, from DOI: 10.1016/0223-5234(90)90141-o
Conditions: pH 7.4

logD	SMILES
2.66	COc1ccc(-c2nc3cnccc3n2C)c(OC)c1
2.15	COc1cc(S(C)=O)ccc1-c1nc2cnccc2n1C (stereo unspecified)
2.68	COc1ccc(-c2nc3ccncc3n2C)c(OC)c1
1.66	COc1cccc(OC)c1-c1nc2cnccc2[nH]1
0.39	COc1cc(S(C)=O)ccc1-c1nc2cnncc2[nH]1 (stereo unspecified)
2.21	COc1cc(S(C)=O)ccc1-c1nc2cnccc2s1 (stereo unspecified)
0.23	COc1cc(S(C)=O)ccc1-c1nc2nnccc2[nH]1 (stereo unspecified)
2.42	COc1ccc(-c2nc3cnccc3o2)c(OC)c1
0.66	COc1cc(S(C)=O)ccc1-c1nc2nccnc2[nH]1 (stereo unspecified)
0.53	COc1cc(S(C)=O)ccc1-c1nc2ncncc2[nH]1 (stereo unspecified)
1.23	COc1cc(S(C)=O)ccc1-c1nc2cnccc2[nH]1 (stereo unspecified)
